Test results published in patent US10316017B2, “COT modulators and methods of use thereof” (Gilead Sciences, Inc., priority 2015, dated 2019).

Key:
[1] = test system: TNFα production in LPS-stimulated human monocytes; test: Cot Monocyte TNFα Cell Based Assay; conditions: Homo sapiens, Monocyte, TNFα in LPS-stimulated human monocytes; read-out: EC50 TNF
Summary of the method: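 5,000 cells/well; cmpd 1 h, 37 °C, 0.5% DMSO final; LPS 50 pg/ml, 4 h, 37 °C; media TNFα by HTRF sandwich (cryptate/XL665), RT overnight; % control vs unstimulated/stimulated wells.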

[2] = biological target: T1, human Cot catalytic domain (30-397 amino acids) (Homo sapiens, UniProt P41279); test: High Throughput Cot Biochemical Assay (KinEASE TR-FRET); conditions: Cot biochemical HTRF (KinEASE TR-FRET) assay; read-out: IC50 HTRF
T1 construct: Purified recombinant human Cot catalytic domain (30-397 amino acids) was purchased from Cama Biosciences; purchased Cama Biosciences (so in the source)
T1 sequence (P41279 30-397): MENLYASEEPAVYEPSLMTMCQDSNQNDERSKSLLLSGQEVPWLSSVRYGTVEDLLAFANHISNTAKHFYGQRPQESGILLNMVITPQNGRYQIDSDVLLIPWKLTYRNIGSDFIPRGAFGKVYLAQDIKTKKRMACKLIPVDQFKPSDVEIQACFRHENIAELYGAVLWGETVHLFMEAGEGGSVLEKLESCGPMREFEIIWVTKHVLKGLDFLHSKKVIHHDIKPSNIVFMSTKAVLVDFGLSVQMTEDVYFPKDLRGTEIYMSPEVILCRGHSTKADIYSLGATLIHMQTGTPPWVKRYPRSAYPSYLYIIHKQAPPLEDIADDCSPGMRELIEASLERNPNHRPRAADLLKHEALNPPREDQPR
Summary of the method: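 First, purified human Cot (aa 30-397) at 5 nM phosphorylates an XL665-labeled STK3 peptide (1 μM) at 400 μM ATP, pH 7.0, 0.1% DMSO. Then a europium-conjugated phospho-specific antibody binds the product, giving the TR-FRET signal.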

Compound	EC50 [1] [nM]	IC50 [2] [nM]
CC[C@@H](Nc1c(C#N)cnc2c(Cl)cc(N[C@@H](c3cccc(N(C)C(C)=O)c3)c3cn(C4CCN(C(C)(C)C)CC4)nn3)cc12)c1ccccc1 [Example 564, N-(3-((S)-(1-(1-(tert-butyl)piperidin-4-yl)-1H-1,2,3-triazol-4-yl)((8-chloro-3-cyano-4 (((R)-1-phenylpropyl)amino)quinolin-6-yl)amino)methyl)phenyl)-N-methylacetamide]	68	1
CC[C@@H](Nc1c(C#N)cnc2c(Cl)cc(N[C@@H](c3cccc(C(=O)O)c3)c3c[nH]nn3)cc12)c1ccccc1 [Example 565, 3-((S)-((8-chloro-3-cyano-4-(((R)-1-phenylpropyl)amino)quinolin-6-yl)amino)(1H-1,2,3-triazol-4-yl)methyl)benzoic acid]	> 10000	24
C[C@@H](Nc1c(C#N)cnc2c(Cl)cc(N[C@@H](c3ccccc3)c3cn(C4CCN(C(C)(C)C)CC4)nn3)cc12)c1ccccc1 [Example 569, 6-(((S)-(1-(1-(tert-butyl)piperidin-4-yl)-1H-1,2,3-triazol-4-yl)(phenyl)methyl)amino)-8-chloro-4-(((R)-1-phenylethyl)amino)quinoline-3-carbonitrile]	721	7
C[C@@H](Nc1c(C#N)cnc2c(Cl)cc(N[C@@H](c3cccc(C(=O)N(C)C)c3)c3cn(C4CCN(C(C)(C)C)CC4)nn3)cc12)c1ccccc1 [Example 571, 3-((S)-(1-(1-(tert-butyl)piperidin-4-yl)-1H-1,2,3-triazol-4-yl)((8-chloro-3-cyano-4-(((R)-1-phenylethyl)amino)quinolin-6-yl)amino)methyl)-N,N-dimethylbenzamide]	382	6
CN(C)C(=O)c1cccc([C@H](Nc2cc(Cl)c3ncc(C#N)c(Nc4ccc(Cl)c(Cl)c4F)c3c2)c2cn(C3CCN(C(C)(C)C)CC3)nn2)c1 [Example 572, (S)-3-((1-(1-(tert-butyl)piperidin-4-yl)-1H-1,2,3-triazol-4-yl)((8-chloro-3-cyano-4-((3,4-dichloro-2-fluorophenyl)amino)quinolin-6-yl)amino)methyl)-N,N-dimethylbenzamide]	111	2
CN(C)C(=O)c1cccc([C@H](Nc2cc(Cl)c3ncc(C#N)c(Nc4ccc(Cl)c(Cl)c4F)c3c2)c2c[nH]nn2)c1 [Example 573, (S)-3-(((8-chloro-3-cyano-4-((3,4-dichloro-2-fluorophenyl)amino)quinolin-6-yl)amino)(1H-1,2,3-triazol-4-yl)methyl)-N,N-dimethylbenzamide]	462	10
C[C@@H](Nc1c(C#N)cnc2c(Cl)cc(N[C@@H](c3cccc(C(=O)N(C)C)c3)c3c[nH]nn3)cc12)c1ccccc1 [Example 578, 3-((S)-((8-chloro-3-cyano-4-(((R)-1-phenylethyl)amino)quinolin-6-yl)amino)(1H-1,2,3-triazol-4-yl)methyl)-N,N-dimethylbenzamide]	2150	13
CC(C)n1cc([C@@H](Nc2cc(Cl)c3ncc(C#N)c(N[C@H](C)c4ccccc4)c3c2)c2cccc(C(=O)N(C)C)c2)nn1 [Example 579, 3-((S)-((8-chloro-3-cyano-4-(((R)-1-phenylethyl)amino)quinolin-6-yl)amino)(1-isopropyl-1H-1,2,3-triazol-4-yl)methyl)-N,N-dimethylbenzamide]	713	8
CC(C)(C)N1CCC(n2cc([C@@H](Nc3cc(Cl)c4ncc(C#N)c(NN5CCOCC5)c4c3)c3ccccc3)nn2)CC1 [Example 580, (S)-6-(((1-(1-(tert-butyl)piperidin-4-yl)-1H-1,2,3-triazol-4-yl)(phenyl)methyl)amino)-8-chloro-4-(morpholinoamino)quinoline-3-carbonitrile]	1590	287
CC(C)(C)N1CCC(n2cc([C@@H](Nc3cc(Cl)c4ncc(C#N)c(N[C@H]5CCc6ccccc65)c4c3)c3ccccc3)nn2)CC1 [Example 581, 6-(((S)-(1-(1-(tert-butyl)piperidin-4-yl)-1H-1,2,3-triazol-4-yl)(phenyl)methyl)amino)-8-chloro-4-(((S)-2,3-dihydro-1H-inden-1-yl)amino)quinoline-3-carbonitrile]	4220	333
CC(C)(C)N1CCC(n2cc([C@@H](Nc3cc(Cl)c4ncc(C#N)c(N[C@@H]5CCc6ccccc65)c4c3)c3ccccc3)nn2)CC1 [Example 583, 6-(((S)-(1-(1-(tert-butyl)piperidin-4-yl)-1H-1,2,3-triazol-4-yl)(phenyl)methyl)amino)-8-chloro-4-(((R)-2,3-dihydro-1H-inden-1-yl)amino)quinoline-3-carbonitrile]	4360	1000
Cc1ccccc1[C@@H](C)Nc1c(C#N)cnc2c(Cl)cc(N[C@@H](c3ccccc3)c3cn(C4CCN(C(C)(C)C)CC4)nn3)cc12 [Example 585, 6-(((S)-(1-(1-(tert-butyl)piperidin-4-yl)-1H-1,2,3-triazol-4-yl)(phenyl)methyl)amino)-8-chloro-4-(((R)-1-(o-tolyl)ethyl)amino)quinoline-3-carbonitrile]	427	16
CC[C@H](C)Nc1c(C#N)cnc2c(Cl)cc(N[C@@H](c3ccccc3)c3cn(C(C)C)nn3)cc12 [Example 586, 4-(((S)-sec-butyl)amino)-8-chloro-6-(((S)-(1-isopropyl-1H-1,2,3-triazol-4-yl)(phenyl)methyl)amino) quinoline-3-carbonitrile]	8560	892

The remaining lines, values ahead:

EC50 [1] [nM]	IC50 [2] [nM]	Compound
353	5	CC(C)n1cc([C@@H](Nc2cc(Cl)c3ncc(C#N)c(Nc4ccc(F)c(Cl)c4)c3c2)c2cccc(NS(C)(=O)=O)c2)nn1 [Example 566, (S)-N-(3-(((8-chloro-4-((3-chloro-4-fluorophenyl)amino)-3-cyanoquinolin-6-yl)amino)(1-isopropyl-1H-1,2,3-triazol-4-yl)methyl)phenyl) methanesulfonamide]
76	3	CC(C)n1cc([C@@H](Nc2cc(Cl)c3ncc(C#N)c(Nc4ccc(F)c(Cl)c4)c3c2)c2cccc(N(C)S(C)(=O)=O)c2)nn1 [Example 567, (S)-N-(3-(((8-chloro-4-((3-chloro-4-fluorophenyl)amino)-3-cyanoquinolin-6-yl)amino)(1-isopropyl-1H-1,2,3-triazol-4-yl)methyl)phenyl)-N-methylmethanesulfonamide]
143	2	CN(c1cccc([C@H](Nc2cc(Cl)c3ncc(C#N)c(Nc4ccc(F)c(Cl)c4)c3c2)c2cn(C3CCN(C(C)(C)C)CC3)nn2)c1)S(C)(=O)=O [Example 568, (S)-N-(3-((1-(1-(tert-butyl)piperidin-4-yl)-1H-1,2,3-triazol-4-yl)((8-chloro-4-((3-chloro-4-fluorophenyl)amino)-3-cyanoquinolin-6-yl)amino)methyl)phenyl)-N-methylmethanesulfonamide]
207	13	CC(C)n1cc([C@@H](Nc2cc(Cl)c3ncc(C#N)c(Nc4ccc(F)c(Cl)c4)c3c2)c2cccc(CN3CCCC3)c2)nn1 [Example 570, (S)-8-chloro-4-((3-chloro-4-fluorophenyl)amino)-6-(((1-isopropyl-1H-1,2,3-triazol-4-yl) (3-(pyrrolidin-1-ylmethyl)phenyl)methyl)amino) quinoline-3-carbonitrile]
161	42	N#Cc1cnc2c(Cl)cc(N[C@@H](c3ccccc3)c3cn(C4C5CN(C6COC6)CC54)nn3)cc2c1Nc1ccc(F)c(Cl)c1 (stereo partly drawn) [Example 574, 8-chloro-4-((3-chloro-4-fluorophenyl)amino)-6-(((1S)-(1-(3-(oxetan-3-yl)-3-azabicyclo[3.1.0]hexan-6-yl)-1H-1,2,3-triazol-4-yl)(phenyl)methyl)amino) quinoline-3-carbonitrile]
429	10	N#Cc1cnc2c(Cl)cc(N[C@@H](c3cccc(CN4CCCC4)c3)c3c[nH]nn3)cc2c1Nc1ccc(F)c(Cl)c1 [Example 575, (S)-8-chloro-4-((3-chloro-4-fluorophenyl)amino)-6-(((3-(pyrrolidin-1-ylmethyl)phenyl) (1H-1,2,3-triazol-4-yl)methyl)amino)quinoline-3-carbonitrile]
72	2	CCN1CC2C(C1)C2n1cc([C@@H](Nc2cc(Cl)c3ncc(C#N)c(Nc4ccc(F)c(Cl)c4)c3c2)c2ccccc2)nn1 (stereo partly drawn) [Example 576, 8-chloro-4-((3-chloro-4-fluorophenyl)amino)-6-(((1S)-(1-(3-ethyl-3-azabicyclo[3.1.0]hexan-6-yl)-1H-1,2,3-triazol-4-yl)(phenyl)methyl)amino) quinoline-3-carbonitrile]
38	3	N#Cc1cnc2c(Cl)cc(N[C@@H](c3ccccc3)c3cn(C4C5CNCC54)nn3)cc2c1Nc1ccc(F)c(Cl)c1 (stereo partly drawn) [Example 577, 6-(((1S)-(1-(3-azabicyclo[3.1.0]hexan-6-yl)-1H-1,2,3-triazo1-4-yl)(phenyl)methyl)amino)-8-chloro-4-((3-chloro-4-fluorophenyl)amino)quinoline-3-carbonitrile]
403	10	CC(C)(C)N1CCC(n2cc([C@@H](Nc3cc(Cl)c4ncc(C#N)c(Nc5cnc(F)c(F)c5)c4c3)c3ccccc3)nn2)CC1 [Example 584, (S)-6-(((1-(1-(tert-butyl)piperidin-4-yl)-1H-1,2,3-triazol-4-yl)(phenyl)methyl)amino)-8-chloro-4-((5,6-difluoropyridin-3-yl)amino)quinoline-3-carbonitrile]
